Test results published in article PMC7822030, “Hybrid Inhibitors of DNA Gyrase A and B: Design, Synthesis and Evaluation” (Pharmaceutics, 2020).
Read-outs that look alike come from different tables or passages of the source.

Legend:
[1] = target: T1, E. coli DNA gyrase (Escherichia coli, UniProt P0AES4+P0AES6); test: E. coli DNA gyrase supercoiling assay; type: biochemical
T1 construct: purchased Inspiralis, Norwich, UK
Experimental: (§1) The assay for determination of the IC50 values was performed according to previously reported procedures.
(§2) Briefly, inhibitory activities were determined using supercoiling (for DNA gyrase) and relaxation (for topoisomerase IV) assay kits (Inspiralis, Norwich, UK) on streptavidin-coated 96-well microtiter plates from Thermo Scientific Pierce (Thermo Fisher Scientific, Waltham, MA, USA). First, the plates were rehydrated with Wash Buffer and the biotinylated oligonucleotide TFO1 was then immobilized. After washing off the unbound oligonucleotide with Wash Buffer, the enzyme assay was performed. Into each well was added 24 µL of mixture containing 6 µL of Assay Buffer (containing ATP), 0.75 µL of relaxed (for E. coli DNA gyrase supercoiling assay) or supercoiled (for E. coli topoisomerase IV relaxation assay) pNO1 plasmid and 17.25 µL of water. Additionally, 3 µL of a solution of the inhibitor in 10% DMSO containing 0.008% Tween 20 and 3 µL of enzyme (1.5 U) in Dilution Buffer were also added to the wells. […] The TF buffer was added to terminate the enzymatic reaction and after additional incubation for 30 min at room temperature, which allowed for triplex formation (biotin–oligonucleotide–plasmid), the unbound plasmid was washed off using TF buffer. Promega Diamond dye in T10 buffer was then added. […] Here, the compounds were diluted using 2-fold serial dilution steps of the given compound. GraphPad Prism 6.0 software was used to calculate the IC50 values, which were determined in at least two independent measurements, and their means are given as the final result. […] Dose-response curves can be found in Supplementary Materials.

[2] = target: T2, E. coli topoisomerase IV (Escherichia coli, UniProt P0AFI2+P20083); test: E. coli topoisomerase IV relaxation assay; type: biochemical; settings: for Inhibition of topoisomerase IV (in words): relaxation assay
T2 construct: purchased Inspiralis, Norwich, UK
Experimental: as §1, §2

[3] = test system: A. baumannii ATCC 17978; test: MIC broth microdilution, A. baumannii; type: cell-based; settings: Acinetobacter baumannii, ATCC17978, read-out: MIC A. baumannii ATCC #
Description: (§3) E. coli MG1655 originated from the laboratory collection of Dr. Csaba Pál. […] E. coli K-12 BW25113 single-gene knockout mutant lines ΔdapF, ΔmrcB, ΔsurA, ΔacrB and ΔtolC originated form the Keio collection copy owned by the laboratory of Dr. Csaba Pál.
(§4) Cation-adjusted Mueller Hinton II broth (MHBII) was used for growth of the bacteria under standard laboratory conditions, for antimicrobial susceptibility tests, and for selection of resistant variants. To prepare the MHBII broth, 22 g MHBII powder (containing 3 g beef extract, 17.5 g acid hydrolysate of casein, 1.5 g starch; Becton, Dickinson and Co., Franklin Lakes, NJ, USA) was dissolved in 1 L water. MHBII agar was prepared by addition of 14 g agar (Bacto; Molar Chemicals, Halásztelek, Hungary) to 1 L broth.
(§5) Minimum inhibitory concentrations (MICs) were determined using a standard serial broth microdilution technique, according to the Clinical and Laboratory Standards Institute guidelines. […] For Enterococcus sp., the cells were plated in BHI agar plates, and BHI broth was used to determine the MICs. […] Following the dilutions, each well was seeded with 5 × 10^4 bacterial cells. Each measurement was performed in three parallel replicates, and to avoid possible edge effects in the microwell plates, the outside rows (A, H) were filled with sterile medium. Following the inoculations, the plates were covered with the lids and wrapped in polyethylene plastic bags, to minimize evaporation but to allow O2 transfer. […] After incubation, the OD600 of each well was measured using a microplate reader (Synergy 2; Biotek, Winooski, VT, USA).

[4] = test system: P. aeruginosa ATCC 27863; test: MIC broth microdilution, P. aeruginosa; type: cell-based; settings: Pseudomonas aeruginosa
Description: as §3, §4, §5

[5] = test system: K. pneumoniae ATCC 10031; test: MIC broth microdilution, K. pneumoniae; type: cell-based; settings: Klebsiella pneumoniae, ATCC10031, read-out: MIC K. pneumoniae ATCC #
Description: as §3, §4, §5

[6] = test system: E. cloacae spp. cloacae ATCC 13047; test: MIC broth microdilution, E. cloacae; type: cell-based, Enterobacter cloacae; settings: Enterobacter cloacae, ATCC13047, read-out: MIC E. cloacae spp. cloacae ATCC #
[7] = test system: E. coli ATCC 25922; test: MIC broth microdilution, E. coli ATCC 25922; type: cell-based; settings: Escherichia coli, ATCC25922, read-out: MIC E. coli ATCC #
Description: as §3, §4, §5

[8] = test system: E. coli BW25113 WT; test: MIC, E. coli BW25113 wild-type; type: cell-based; settings: Escherichia coli, BW25113, read-out: Minimum Inhibitory Concentration E. coli BW# WT
Description: as §3, §4, §5

[9] = test system: E. coli BW25113 ΔacrB; type: cell-based, Escherichia coli
Description: as §3, §4, §5

[10] = test system: E. coli BW25113 ΔdapF; type: cell-based, Escherichia coli
Description: as §3, §4, §5

[11] = test system: E. coli BW25113 ΔmrcB; type: cell-based, Escherichia coli
Description: as §3, §4, §5

[12] = test system: E. coli BW25113 ΔsurA; type: cell-based, Escherichia coli
Description: as §3, §4, §5

[13] = test system: E. coli BW25113 ΔtolC; type: cell-based, Escherichia coli
Description: as §3, §4, §5

[14] = test system: E. coli MG1655 WT; test: MIC, E. coli MG1655 wild-type with PAβN; type: cell-based, Escherichia coli; settings: for MIC: Escherichia coli, MG1655, read-out: Minimum Inhibitory Concentration E. coli MG# WT, 50 µg/mL PAβN, molar conversion in parentheses; for Minimum Inhibitory Concentration E. coli MG1655 WT: in the presence of 50 µg/mL PAβN
Description: as §3, §4
as §5, with “USA). […]” for “USA).”

[15] = test system: E. coli MG1655 GyrA S83L, D87N ParC S80I, E84G; test: microbe, parasite or virus in culture; type: cell-based, Escherichia coli; settings: for MIC: Escherichia coli, MG1655, read-out: Minimum Inhibitory Concentration E. coli MG# GyrA S83L, D87N ParC S80I, E84G; for Minimum Inhibitory Concentration E. coli MG1655 GyrA S83L, D87N ParC S80I, E84G: in the presence of 50 µg/mL PAβN
Description: as §3, §4, §5
(§6) These mutated amino acids are the most common sites for target-based resistance in E. coli.

[16] = test system: E. coli MG1655 GyrB R136C; test: microbe, parasite or virus in culture; type: cell-based, Escherichia coli; settings: for MIC: Escherichia coli, MG1655, read-out: Minimum Inhibitory Concentration E. coli MG# GyrB R#C; for Minimum Inhibitory Concentration E. coli MG1655 GyrB R136C: in the presence of 50 µg/mL PAβN
Description: as §3, §4, §5, §6

[17] = molar conversion in parentheses
[18] = ATCC27863, 18 h, read-out: MIC P. aeruginosa ATCC #
[19] = ATCC27863, read-out: MIC P. aeruginosa ATCC #, molar conversion in parentheses, read-out: MIC P. aeruginosa ATCC 27863

SMILES	IC50 [1] [µM]	IC50 [2] [µM]	Inhibition of topoisomerase IV (in words) [2]	MIC ([3]; broth microdilution, 18 h) [µg/mL]	MIC [3, 17] [µM]	MIC [4, 18] [µg/mL]	MIC [4, 19] [µM]	MIC ([5]; broth microdilution, 18 h) [µg/mL]	MIC [5, 17] [µM]	MIC ([6]; broth microdilution, 18 h) [µg/mL]	MIC [6, 17] [µM]	MIC ([7]; broth microdilution, 18 h) [µg/mL]	MIC [7, 17] [µM]	MIC [8, 17] [µM]	MIC ([8]; wild-type) [µg/mL]	Minimum Inhibitory Concentration E. coli BW25113 ΔacrB ([9]; efflux pump mutant) [µg/mL]	Minimum Inhibitory Concentration E. coli BW25113 ΔacrB [9, 17]	Minimum Inhibitory Concentration E. coli BW25113 ΔdapF ([10]; impaired cell-wall mutant) [µg/mL]	Minimum Inhibitory Concentration E. coli BW25113 ΔdapF [10, 17]	Minimum Inhibitory Concentration E. coli BW25113 ΔmrcB ([11]; impaired cell-wall mutant) [µg/mL]	other results
Cc1[nH]c(C(=O)Nc2nc3ccc(C(=O)N4CCN(c5cc6c(cc5F)c(=O)c(C(=O)O)cn6C5CC5)CC4)cc3s2)c(Cl)c1Cl [Compound 3a, 1-Cyclopropyl-7-(4-(2-(3,4-dichloro-5-methyl-1H-pyrrole-2-carboxamido)benzo[d]thiazole-6-carbonyl)piperazin-1-yl)-6-fluoro-4-oxo-1,4-dihydroquinoline-3-carboxylic acid]	0.45 ± 0.18	1 ± 0.15	low micromolar	16	23.4	64	93.6	0.5	0.73	4	5.85	2	2.93	5.85	4	4	(5.85 µM)	4	(5.85 µM)	4	Minimum Inhibitory Concentration E. coli BW25113 ΔmrcB [11, 17]: (5.85 µM); Minimum Inhibitory Concentration E. coli BW25113 ΔsurA ([12]; impaired cell-wall mutant): 4 µg/mL; Minimum Inhibitory Concentration E. coli BW25113 ΔsurA [12, 17]: (5.85 µM); Minimum Inhibitory Concentration E. coli BW25113 ΔtolC ([13]; efflux pump mutant): 1 µg/mL; MIC change, ΔtolC mutant versus wild-type E. coli BW25113 ([13]; improvement of MIC in impaired efflux pump mutant): 4 fold; Minimum Inhibitory Concentration E. coli BW25113 ΔtolC [13, 17]: (1.46 µM); MIC [14]: 0.73 µM; Minimum Inhibitory Concentration E. coli MG1655 WT [14]: 0.5 µg/mL; MIC [15]: 23.4 µM; Minimum Inhibitory Concentration E. coli MG1655 GyrA S83L, D87N ParC S80I, E84G [15]: 16 µg/mL; MIC [16]: 0.73 µM; Minimum Inhibitory Concentration E. coli MG1655 GyrB R136C [16]: 0.5 µg/mL; melting point: > 300 °C
Cc1[nH]c(C(=O)Nc2nc3c(OCc4ccccc4)cc(C(=O)N4CCN(c5cc6c(cc5F)c(=O)c(C(=O)O)cn6C5CC5)CC4)cc3s2)c(Cl)c1Cl [Compound 3b, 7-(4-(4-(Benzyloxy)-2-(3,4-dichloro-5-methyl-1H-pyrrole-2-carboxamido)benzo[d]thiazole-6-carbonyl)piperazin-1-yl)-1-cyclopropyl-6-fluoro-4-oxo-1,4-dihydroquinoline-3-carboxylic acid]	3.3 ± 1.5	> 10	lack of activity	> 64	> 81	> 64	> 81	> 64	> 81	> 64	> 81	> 64	> 81	> 81	> 64	>64	(>81.0 µM)	>64	(>81.0 µM)	>64	Minimum Inhibitory Concentration E. coli BW25113 ΔmrcB [11, 17]: (>81.0 µM); Minimum Inhibitory Concentration E. coli BW25113 ΔsurA ([12]; impaired cell-wall mutant): >64 µg/mL; Minimum Inhibitory Concentration E. coli BW25113 ΔsurA [12, 17]: (>81.0 µM); Minimum Inhibitory Concentration E. coli BW25113 ΔtolC ([13]; efflux pump mutant): 16 µg/mL; Minimum Inhibitory Concentration E. coli BW25113 ΔtolC [13, 17]: (20.3 µM); MIC [14]: 81 µM; Minimum Inhibitory Concentration E. coli MG1655 WT [14]: 64 µg/mL; MIC [15]: > 81 µM; Minimum Inhibitory Concentration E. coli MG1655 GyrA S83L, D87N ParC S80I, E84G [15]: >64 µg/mL; MIC [16]: 40.5 µM; Minimum Inhibitory Concentration E. coli MG1655 GyrB R136C [16]: 32 µg/mL; melting point: > 300 °C
